Assay results: patent US12655156B2, “Oxadiazolopyrazines and oxadiazolopyridines useful as mitochondrial uncouplers” (Virginia Tech Intellectual Properties, Inc., priority 2018, dated 2026)

tested on: whole cells (NMuLi, C2C12, and L6 cells, isolated cardiomyocytes, human primary fibroblasts); assay: Oxygen consumption rate (OCR) in whole cells, Seahorse XF-24 Flux Analyzer; format: cell-based; conditions: increase in OCR; binned EC50 values
Experimental: Biological activities of the compounds synthesized is determined by determining increase in oxygen consumption rate (OCR).
Oxygen consumption rate (OCR) in whole cells is measured in general accordance with the method of Kenwood B M et al. (Mol. Met. (2014) 3:114-123).
OCR is measured using a Seahorse XF-24 Flux Analyzer (Seahorse Biosciences, North Billerica, MA). NMuLi, C2C12, and L6 cells are seeded in a Seahorse 24-well tissue culture plate at a density of 3.5×10^4 cells/well, isolated cardiomyocytes at a density of 4×10^4 cells/well, and human primary fibroblasts at a density of 1.1×10^4 cells/well. The cells are then allowed to adhere for 24 h. Prior to the assay, the media is changed to unbuffered DMEM containing pyruvate and glutamine (Gibco #12800-017, pH=7.4 at 37° C.) and the cells are equilibrated for 30 mins at 37°° C. Compounds are injected during the assay and OCR is measured using 2 min measurement periods.
2-3 wells are used per condition and averaged over three plates (n=6-9). Statistical significance is determined by two-way ANOVA with Bonferroni's posttest.
Activities are reported as binned EC50 values: A=5 μM or less; B=>5 to 20 μM; C=over 20 μM; NA=not active.

Question: With Oc1nc2nonc2nc1Nc1cccc(OCc2ccc(C(F)(F)F)cc2)c1 [1-97, 6-((3-((4-(Trifluoromethyl)benzyl)oxy)phenyl)amino)-[1,2,5]oxadiazolo[3,4-b]pyrazin-5-ol] as the compound, how does the EC50 read?
Answer: Its EC50 is ≤ 5 µM.

Question: With O=C(COc1cccc(Nc2nc3nonc3nc2O)c1)c1ccc(OC(F)(F)F)cc1 [1-98, 2-(3-((6-hydroxy-[1,2,5]oxadiazolo[3,4-b]pyrazin-5-yl)amino)phenoxy)-1-(4-(trifluoromethoxy)phenyl)ethan-1-one] as the compound, how does the EC50 read?
Answer: The EC50 was 5 to 20 µM.

Question: Oc1nc2nonc2nc1Nc1ccc(OCCCC(F)(F)F)c(F)c1 [1-99, 6-((3-fluoro-4-(4,4,4-trifluorobutoxy)phenyl)amino)-[1,2,5]oxadiazolo[3,4-b]pyrazin-5-ol] was tested. Which EC50 did it give?
Answer: Its EC50 is ≤ 5 µM.

Question: Oc1nc2nonc2nc1Nc1ccc(OCCCC(F)(F)F)c(C(F)(F)F)c1 [1-100, 6-((4-(4,4,4-trifluorobutoxy)-3-(trifluoromethyl)phenyl)amino)-[1,2,5]oxadiazolo[3,4-b]pyrazin-5-ol] was tested. Which EC50 did it give?
Answer: The EC50 was ≤ 5 µM.

Question: With Oc1nc2nonc2nc1Nc1ccc(-c2ccccc2)cc1 [1-103, 6-([1,1′-biphenyl]-4-ylamino)-[1,2,5]oxadiazolo[3,4-b]pyrazin-5-ol] as the compound, how does the EC50 read?
Answer: Its EC50 is ≤ 5 µM.

Question: Oc1nc2nonc2nc1Nc1cccc(-c2ccccc2)c1 [1-104, 6-([1,1′-biphenyl]-3-ylamino)-[1,2,5]oxadiazolo[3,4-b]pyrazin-5-ol] was tested. Which EC50 did it give?
Answer: Its EC50 is ≤ 5 µM.

Question: With Oc1nc2nonc2nc1Nc1ccc(-c2ccc(OC(F)(F)F)cc2)cc1 [1-105, 6-((4′-(trifluoromethoxy)-[1,1′-biphenyl]-4-yl)amino)-[1,2,5]oxadiazolo[3,4-b]pyrazin-5-ol] as the compound, how does the EC50 read?
Answer: The EC50 was 5 to 20 µM.

Question: Which EC50 does the source give for Oc1nc2nonc2nc1Nc1ccc(-c2cccs2)cc1 [1-106, 6-((4-(thiophen-2-yl)phenyl)amino)-[1,2,5]oxadiazolo[3,4-b]pyrazin-5-ol] here?
Answer: The EC50 was 5 to 20 µM.

Question: For Oc1nc2nonc2nc1Nc1ccc(-c2ccc(C(F)(F)F)nc2)cc1 [1-107, 6-((4-(6-(trifluoromethyl)pyridin-3-yl)phenyl)amino)-[1,2,5]oxadiazolo[3,4-b]pyrazin-5-ol], which EC50 is on record?
Answer: Its EC50 is 5 to 20 µM.

Question: Oc1nc2nonc2nc1Nc1ccc(-c2ccc(OC(F)F)cc2)cc1 [1-108, 6-((4′-(difluoromethoxy)-[1,1′-biphenyl]-4-yl)amino)-[1,2,5]oxadiazolo[3,4-b]pyrazin-5-ol] was tested. Which EC50 did it give?
Answer: The EC50 was ≤ 5 µM.

Question: How did the EC50 turn out when Oc1nc2nonc2nc1Nc1ccc(-c2ccc(F)c(C(F)F)c2)cc1 [1-109, 6-((3′-(difluoromethyl)-4′-fluoro-[1,1′-biphenyl]-4-yl)amino)-[1,2.5]oxadiazolo[3.4-b]pyrazin-5-ol] was run?
Answer: Its EC50 is ≤ 5 µM.

Question: With Oc1nc2nonc2nc1Nc1ccc(-c2cccc(C(F)(F)F)c2)cc1 [1-110, 6-((3′-(trifluoromethyl)-[1,1′-biphenyl]-4-yl)amino)-[1,2,5]oxadiazolo[3,4-b]pyrazin-5-ol] as the compound, how does the EC50 read?
Answer: Its EC50 is 5 to 20 µM.

Question: Oc1nc2nonc2nc1Nc1ccc(-c2cccc(OC(F)(F)F)c2)cc1 [1-111, 6-((3′-(trifluoromethoxy)-[1,1′-biphenyl]-4-yl)amino)-[1,2,5]oxadiazolo[3,4-b]pyrazin-5-ol] was tested. Which EC50 did it give?
Answer: Its EC50 is 5 to 20 µM.

Question: With Oc1nc2nonc2nc1Nc1cccc(-c2ccc(OC(F)F)cc2)c1 [1-113, 6-((4′-(difluoromethoxy)-[1,1′-biphenyl]-3-yl)amino)-[1,2,5]oxadiazolo[3,4-b]pyrazin-5-ol] as the compound, how does the EC50 read?
Answer: The EC50 was ≤ 5 µM.

Question: How did the EC50 turn out when Oc1nc2nonc2nc1Nc1cccc(-c2ccc(F)c(C(F)F)c2)c1 [1-114, 6-((3′-(difluoromethyl)-4′-fluoro-[1,1′-biphenyl]-3-yl)amino)-[1,2,5]oxadiazolo[3,4-b]pyrazin-5-ol] was run?
Answer: The EC50 was ≤ 5 µM.

Question: For Oc1nc2nonc2nc1Nc1cccc(-c2ccc(C(F)(F)F)nc2)c1 [1-115, 6-((3-(6-(trifluoromethyl)pyridin-3-yl)phenyl)amino)-[1,2,5]oxadiazolo[3,4-b]pyrazin-5-ol], which EC50 is on record?
Answer: Its EC50 is > 20 µM.

Question: For Oc1nc2nonc2nc1Nc1ccc(F)c(-c2ccc(C(F)(F)F)nc2)c1 [1-116, 6-((4-fluoro-3-(6-(trifluoromethyl)pyridin-3-yl)phenyl)amino)-[1,2,5]oxadiazolo[3,4-b]pyrazin-5-ol], which EC50 is on record?
Answer: The EC50 was 5 to 20 µM.

Question: Oc1nc2nonc2nc1Nc1ccc(OC(F)(F)F)c(-c2ccc(C(F)(F)F)nc2)c1 [1-117, 6-((4-(trifluoromethoxy)-3-(6-(trifluoromethyl)pyridin-3-yl)phenyl)amino)-[1,2,5]oxadiazolo[3,4-b]pyrazin-5-ol] was tested. Which EC50 did it give?
Answer: Its EC50 is 5 to 20 µM.

Question: Which EC50 does the source give for CC1(C)c2ccccc2-c2ccc(Nc3nc4nonc4nc3O)cc21 [1-118, 6-((9,9-dimethyl-9H-fluoren-2-yl)amino)-[1,2,5]oxadiazolo[3,4-b]pyrazin-5-ol] here?
Answer: The EC50 was ≤ 5 µM.

Question: For Oc1nc2nonc2nc1Nc1cccc(-c2cc(F)cc(F)c2)c1 [1-119, 6-((3′,5′-difluoro-[1,1′-biphenyl]-3-yl)amino)-[1,2,5]oxadiazolo[3,4-b]pyrazin-5-ol], which EC50 is on record?
Answer: Its EC50 is ≤ 5 µM.

Question: How did the EC50 turn out when Oc1nc2nonc2nc1Nc1cccc(-c2ccc3c(c2)OCO3)c1 [1-120, 6-((3-(benzo[d][1,3]dioxol-5-yl)phenyl)amino)-[1,2,5]oxadiazolo[3,4-b]pyrazin-5-ol] was run?
Answer: Its EC50 is ≤ 5 µM.

Question: For Oc1nc2nonc2nc1Nc1ccc(-c2cc(F)cc(F)c2)cc1 [1-121, 6-((3′,5′-difluoro-[1,1′-biphenyl]-4-yl)amino)-[1,2,5]oxadiazolo[3,4-b]pyrazin-5-ol], which EC50 is on record?
Answer: The EC50 was ≤ 5 µM.

Question: Oc1nc2nonc2nc1Nc1ccc(-c2ccc3c(c2)OCO3)cc1 [1-122, 6-((4-(benzo[d][1,3]dioxol-5-yl)phenyl)amino)-[1,2,5]oxadiazolo[3,4-b]pyrazin-5-ol] was tested. Which EC50 did it give?
Answer: The EC50 was > 20 µM.

Question: For N#Cc1cc(-c2ccc(Nc3nc4nonc4nc3O)cc2)cs1 [1-123, 4-(4-((6-hydroxy-[1,2,5]oxadiazolo[3,4-b]pyrazin-5-yl)amino)phenyl)thiophene-2-carbonitrile], which EC50 is on record?
Answer: The EC50 was ≤ 5 µM.

Question: Oc1nc2nonc2nc1Nc1ccc(-c2ccc(F)cc2)cc1F [1-124, 6-((3,4′-difluoro-[1,1′-biphenyl]-4-yl)amino)-[1,2,5]oxadiazolo[3,4-b]pyrazin-5-ol] was tested. Which EC50 did it give?
Answer: Its EC50 is ≤ 5 µM.

Question: How did the EC50 turn out when Oc1nc2nonc2nc1Nc1ccc(-c2ccc(F)cc2)c(F)c1 [1-125, 6-((2,4′-difluoro-[1,1′-biphenyl]-4-yl)amino)-[1,2,5]oxadiazolo[3,4-b]pyrazin-5-ol] was run?
Answer: Its EC50 is ≤ 5 µM.

Question: How did the EC50 turn out when Oc1nc2nonc2nc1Nc1cccc(-c2ccc3c(c2)OC(F)(F)O3)c1 [1-126, 6-((3-(2,2-difluorobenzo[d][1,3]dioxol-5-yl)phenyl)amino)-[1,2,5]oxadiazolo[3,4-b]pyrazin-5-ol] was run?
Answer: Its EC50 is ≤ 5 µM.

Question: O=C1c2ccccc2-c2ccc(Nc3nc4nonc4nc3O)cc21 [1-127, 2-((6-hydroxy-[1,2,5]oxadiazolo[3,4-b]pyrazin-5-yl)amino)-9H-fluoren-9-one] was tested. Which EC50 did it give?
Answer: Its EC50 is > 20 µM.

Question: COc1cc(-c2ccc(Nc3nc4nonc4nc3O)cc2)ccc1F [1-128, 6-((4′-fluoro-3′-methoxy-[1,1′-biphenyl]-4-yl)amino)-[1,2,5]oxadiazolo[3,4-b]pyrazin-5-ol] was tested. Which EC50 did it give?
Answer: Its EC50 is > 20 µM.

Question: With N#Cc1cc(-c2ccc(Nc3nc4nonc4nc3O)cc2)ccc1F [1-129, 4-fluoro-4′-((6-hydroxy-[1,2,5]oxadiazolo[3,4-b]pyrazin-5-yl)amino)-[1,1′-biphenyl]-3-carbonitrile] as the compound, how does the EC50 read?
Answer: Its EC50 is 5 to 20 µM.

Question: Oc1nc2nonc2nc1Nc1ccc(-c2ccc(C(F)(F)F)cc2)cc1 [1-130, 6-((4′-(trifluoromethyl)-[1,1′-biphenyl]-4-yl)amino)-[1,2,5]oxadiazolo[3,4-b]pyrazin-5-ol] was tested. Which EC50 did it give?
Answer: Its EC50 is 5 to 20 µM.

Question: Oc1nc2nonc2nc1Nc1cccc(-c2ccc(C(F)(F)F)cc2)c1 [1-131, 6-((4′-(trifluoromethyl)-[1,1′-biphenyl]-3-yl)amino)-[1,2,5]oxadiazolo[3,4-b]pyrazin-5-ol] was tested. Which EC50 did it give?
Answer: The EC50 was ≤ 5 µM.

Question: How did the EC50 turn out when Cc1ccc(-c2cccc(Nc3nc4nonc4nc3O)c2)cc1 [1-132, 6-((4′-methyl-[1,1′-biphenyl]-3-yl)amino)-[1,2,5]oxadiazolo[3,4-b]pyrazin-5-ol] was run?
Answer: The EC50 was ≤ 5 µM.

Question: With Oc1nc2nonc2nc1Nc1cccc(-c2ccc(Cl)cc2)c1 [1-133, 6-((4′-chloro-[1,1′-biphenyl]-3-yl)amino)-[1,2,5]oxadiazolo[3,4-b]pyrazin-5-ol] as the compound, how does the EC50 read?
Answer: Its EC50 is ≤ 5 µM.

Question: How did the EC50 turn out when Oc1nc2nonc2nc1Nc1cccc(-c2ccc(F)cc2)c1 [1-134, 6-((4′-fluoro-[1,1′-biphenyl]-3-yl)amino)-[1,2,5]oxadiazolo[3,4-b]pyrazin-5-ol] was run?
Answer: Its EC50 is ≤ 5 µM.

Question: For Oc1nc2nonc2nc1Nc1cccc(-c2cccc(C(F)(F)F)c2)c1 [1-135, 6-((3′-(trifluoromethyl)-[1,1′-biphenyl]-3-yl)amino)-[1,2,5]oxadiazolo[3,4-b]pyrazin-5-ol], which EC50 is on record?
Answer: The EC50 was ≤ 5 µM.

Question: How did the EC50 turn out when Oc1nc2nonc2nc1Nc1cccc(-c2ccc(OC(F)(F)F)cc2)c1 [1-136, 6-((4′-(trifluoromethoxy)-[1,1′-biphenyl]-3-yl)amino)-[1,2,5]oxadiazolo[3,4-b]pyrazin-5-ol] was run?
Answer: Its EC50 is ≤ 5 µM.

Question: COc1cccc(-c2ccc(Nc3nc4nonc4nc3O)cc2)c1 [1-137, 6-((3′-methoxy-[1,1′-biphenyl]-4-yl)amino)-[1,2,5]oxadiazolo[3,4-b]pyrazin-5-ol] was tested. Which EC50 did it give?
Answer: Its EC50 is ≤ 5 µM.

Question: For CC(=O)COc1nc2nonc2nc1Nc1ccc(-c2ccc(F)cc2)cc1 [1-190, 1-((6-((4′-fluoro-[1,1′-biphenyl]-4-yl)amino)-[1,2,5]oxadiazolo[3,4-b]pyrazin-5-yl)oxy)propan-2-one], which EC50 is on record?
Answer: Its EC50 is ≤ 5 µM.

Question: Which EC50 does the source give for O=C(Nc1nc2nonc2nc1OCc1ccccc1)c1ccc(C(F)(F)F)cc1 [1-196, N-(6-(benzyloxy)-[1,2,5]oxadiazolo[3,4-b]pyrazin-5-yl)-4-(trifluoromethyl)benzamide] here?
Answer: Its EC50 is 5 to 20 µM.
